Experiments:
[1] = tested on: DHP (PN-200 110) binding sites in rats' brain; experiment: Binding affinity to DHP (PN 200-110) binding sites in rats' brain; parameters: species or system rat; conditions: comparison of binding affinities rats' brain vs rats' heart (Ki heart / Ki brain)
Experimental: (§1) The binding affinities to PN 200-110 binding sites in rats' brains or rats' hearts are determined according to Rampe, D. R., Rutledge, A., Janis, R. A., Triggle, D. J.: Can. Journ. Physiol. Pharmacol. 65, (1987) 1452.
(§2) This selectivity exceeds that of the known cerebrally active Ca^2+-antagonistic dihydropyridines nimodipine and nicardipine. This is seen e.g. in the comparison of the binding affinities to DHP (PN-200 110) binding sites in rats' brain and rats' heart [cf. Rampe, D. R., Rutledge, A., Janis, R. A., Triggle, D. J., Can. Journ. Physiol. Pharmacol. 65 (1987), 1452].

[2] = biological target: T1, DHP (PN-200 110) binding sites in rats' heart (Rattus norvegicus, UniProt P22002); experiment: Binding affinity to DHP (PN 200-110) binding sites in rats' heart; conditions: PN 200-110 (DHP) binding sites
T1 construct: from tissue; host or cells: rat heart
T1 sequence (P22002 whole entry, other chains not shown): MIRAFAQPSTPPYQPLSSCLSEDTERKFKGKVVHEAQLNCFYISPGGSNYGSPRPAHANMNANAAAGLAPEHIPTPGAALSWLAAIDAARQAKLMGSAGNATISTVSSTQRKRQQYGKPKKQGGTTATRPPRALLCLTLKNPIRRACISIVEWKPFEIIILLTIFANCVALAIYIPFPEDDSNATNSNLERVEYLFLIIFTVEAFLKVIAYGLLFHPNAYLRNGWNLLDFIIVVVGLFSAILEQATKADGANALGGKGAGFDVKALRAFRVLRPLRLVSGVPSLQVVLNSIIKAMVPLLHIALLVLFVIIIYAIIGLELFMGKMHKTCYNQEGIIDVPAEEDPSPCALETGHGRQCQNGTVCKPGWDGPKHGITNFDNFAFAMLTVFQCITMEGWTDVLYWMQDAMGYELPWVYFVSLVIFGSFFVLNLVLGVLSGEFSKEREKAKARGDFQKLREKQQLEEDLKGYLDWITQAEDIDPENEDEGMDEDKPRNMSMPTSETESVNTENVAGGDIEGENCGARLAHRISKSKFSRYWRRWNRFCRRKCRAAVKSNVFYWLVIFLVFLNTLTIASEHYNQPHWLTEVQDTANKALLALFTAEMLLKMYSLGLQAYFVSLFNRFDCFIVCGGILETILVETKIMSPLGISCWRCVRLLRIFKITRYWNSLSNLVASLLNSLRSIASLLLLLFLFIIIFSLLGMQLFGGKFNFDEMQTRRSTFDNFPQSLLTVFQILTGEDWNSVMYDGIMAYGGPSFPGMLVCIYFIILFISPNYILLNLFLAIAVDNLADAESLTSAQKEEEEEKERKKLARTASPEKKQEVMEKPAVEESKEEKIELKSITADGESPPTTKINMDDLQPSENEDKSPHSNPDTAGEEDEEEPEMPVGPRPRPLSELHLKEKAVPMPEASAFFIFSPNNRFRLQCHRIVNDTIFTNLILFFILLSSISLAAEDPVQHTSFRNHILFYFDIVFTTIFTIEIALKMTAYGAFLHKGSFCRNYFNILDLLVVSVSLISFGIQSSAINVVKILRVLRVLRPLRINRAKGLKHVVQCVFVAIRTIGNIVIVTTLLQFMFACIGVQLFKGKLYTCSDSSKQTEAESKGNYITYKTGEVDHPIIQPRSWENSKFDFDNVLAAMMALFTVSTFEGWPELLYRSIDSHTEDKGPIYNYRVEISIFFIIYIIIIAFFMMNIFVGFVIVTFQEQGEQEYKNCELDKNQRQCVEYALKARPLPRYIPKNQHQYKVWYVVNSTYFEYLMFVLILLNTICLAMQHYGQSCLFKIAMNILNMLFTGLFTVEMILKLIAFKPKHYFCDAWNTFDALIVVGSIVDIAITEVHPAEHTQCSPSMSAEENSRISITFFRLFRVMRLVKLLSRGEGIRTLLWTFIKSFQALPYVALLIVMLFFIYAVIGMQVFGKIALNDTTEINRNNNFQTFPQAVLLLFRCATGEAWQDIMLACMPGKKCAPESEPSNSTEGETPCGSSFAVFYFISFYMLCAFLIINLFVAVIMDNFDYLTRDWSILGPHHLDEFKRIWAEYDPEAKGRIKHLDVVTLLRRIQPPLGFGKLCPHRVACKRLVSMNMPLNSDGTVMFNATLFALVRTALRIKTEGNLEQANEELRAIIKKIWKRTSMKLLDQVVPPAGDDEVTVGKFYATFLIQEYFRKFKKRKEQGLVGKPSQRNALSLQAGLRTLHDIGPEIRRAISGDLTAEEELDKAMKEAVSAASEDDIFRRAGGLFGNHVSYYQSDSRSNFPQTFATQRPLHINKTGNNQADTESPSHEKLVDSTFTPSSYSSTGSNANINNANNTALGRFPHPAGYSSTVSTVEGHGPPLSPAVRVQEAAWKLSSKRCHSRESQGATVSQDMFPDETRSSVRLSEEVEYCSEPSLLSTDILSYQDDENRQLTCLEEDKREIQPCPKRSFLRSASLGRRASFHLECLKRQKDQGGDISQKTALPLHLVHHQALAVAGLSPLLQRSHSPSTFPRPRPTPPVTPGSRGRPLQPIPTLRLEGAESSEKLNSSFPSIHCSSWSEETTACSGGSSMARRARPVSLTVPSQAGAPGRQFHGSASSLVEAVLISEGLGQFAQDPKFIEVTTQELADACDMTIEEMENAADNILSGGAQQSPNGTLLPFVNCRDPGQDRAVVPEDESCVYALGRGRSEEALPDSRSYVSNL
T1 sequence (P54290 25-944 partner limits assumed, other chains not shown): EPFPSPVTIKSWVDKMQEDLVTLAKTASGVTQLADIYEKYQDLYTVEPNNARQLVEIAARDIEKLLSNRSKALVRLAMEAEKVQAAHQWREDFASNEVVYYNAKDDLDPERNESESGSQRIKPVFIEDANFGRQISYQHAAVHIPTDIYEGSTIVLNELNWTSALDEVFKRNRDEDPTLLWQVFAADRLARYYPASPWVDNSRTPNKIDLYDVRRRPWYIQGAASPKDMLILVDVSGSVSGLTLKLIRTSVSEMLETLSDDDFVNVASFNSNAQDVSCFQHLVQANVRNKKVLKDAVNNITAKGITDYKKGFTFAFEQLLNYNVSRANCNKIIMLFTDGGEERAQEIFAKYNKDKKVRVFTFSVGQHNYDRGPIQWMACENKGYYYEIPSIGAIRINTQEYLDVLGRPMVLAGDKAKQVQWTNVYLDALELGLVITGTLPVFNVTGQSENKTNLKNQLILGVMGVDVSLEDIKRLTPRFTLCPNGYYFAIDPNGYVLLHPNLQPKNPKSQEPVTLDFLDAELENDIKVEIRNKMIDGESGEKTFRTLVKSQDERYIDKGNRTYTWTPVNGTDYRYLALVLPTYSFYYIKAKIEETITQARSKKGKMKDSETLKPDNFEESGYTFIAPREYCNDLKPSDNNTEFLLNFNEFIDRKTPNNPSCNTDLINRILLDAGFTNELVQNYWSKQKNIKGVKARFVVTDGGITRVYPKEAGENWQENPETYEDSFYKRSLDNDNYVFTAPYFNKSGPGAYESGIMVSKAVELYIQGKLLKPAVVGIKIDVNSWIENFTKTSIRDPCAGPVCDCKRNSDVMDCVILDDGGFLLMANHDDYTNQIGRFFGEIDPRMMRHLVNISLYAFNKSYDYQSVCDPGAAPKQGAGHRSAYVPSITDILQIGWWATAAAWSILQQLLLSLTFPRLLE
T1 sequence (P54290 945-1091 partner limits assumed, other chains not shown): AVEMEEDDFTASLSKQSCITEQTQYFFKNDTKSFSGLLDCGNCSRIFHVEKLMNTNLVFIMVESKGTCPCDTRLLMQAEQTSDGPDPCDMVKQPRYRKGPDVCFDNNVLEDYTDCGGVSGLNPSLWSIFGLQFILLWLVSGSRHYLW
Experimental: as §1, §2

SMILES | Selectivity [1] | Ki [2] [nM] | melting point [°C]
COCCOC(=O)C1=C(C)NC(C)=C(C(=O)OC(C)C)C1c1cc(Cl)ccc1Cl (racemic) [Example 12, (±) isopropyl 2-methoxyethyl 4-(2,5-dichlorophenyl)-1,4-dihydro-2,6-dimethylpyridine-3,5-dicarboxylate] | 10 | 72 | 79 to 89
COCCOC(=O)C1=C(C)NC(C)=C(C(=O)OC2CCCC2)C1c1cccc(C(F)(F)F)c1F (racemic) [Example 36, (±) cyclopentyl 2-methoxyethyl 4-(2-fluoro-3-trifluoromethylphenyl)-1,4-dihydro-2,6-dimethylpyridine-3,5-dicarboxylate] | – | – | 105
COC(=O)C1=C(C)NC(C)=C(C(=O)OCCN(C)Cc2ccccc2)C1c1cccc([N+](=O)[O-])c1 (centres unmarked) [Nicardipine, nicardipine, reference compound] | – | 14 | –
COCCOC(=O)C1=C(C)NC(C)=C(C(=O)OC(C)C)C1c1c(F)cccc1F (racemic) [Example 6, (±) isopropyl 2-methoxyethyl 4-(2,6-difluorophenyl)-1,4-dihydro-2,6-dimethylpyridine-3,5-dicarboxylate] | – | – | 119 to 120
COCCOC(=O)C1=C(C)NC(C)=C(C(=O)OC(C)C)C1c1ccc(F)c(F)c1 (racemic) [Example 18] | 3.4 | 28 | 78
COCCOC(=O)C1=C(C)NC(C)=C(C(=O)OC(C)(C)C)C1c1cccc(C#N)c1 (racemic) [Example 33, (±) tert-butyl 2-methoxyethyl 4-(3-cyanophenyl)-1,4-dihydro-2,6-dimethylpyridine-3,5-dicarboxylate] | 2.2 | 7.9 | 108 to 109
COCCOC(=O)C1=C(C)NC(C)=C(C(=O)OC)C1c1cccc(C(F)(F)F)c1F (racemic) [Example 39, (±) 2-methoxyethyl methyl 4-(2-fluoro-3-trifluoromethylphenyl)-1,4-dihydro-2,6-dimethylpyridine-3,5-dicarboxylate] | – | – | 128
COCCOC(=O)C1=C(C)NC(C)=C(C(=O)OC(C)C)C1c1cccc(C(F)(F)F)c1F (racemic) [Example 27, (±) isopropyl 2-methoxyethyl 4-(2-fluoro-3-trifluoromethylphenyl)-1,4-dihydro-2,6-dimethylpyridine-3,5-dicarboxylate] | – | – | 140 to 142
COCCOC(=O)C1=C(C)NC(C)=C(C(=O)OC(C)C)C1c1cccc([N+](=O)[O-])c1 (centres unmarked) [Nimodipine, nimodipine, reference compound] | – | 4.6 | –
COCCOC(=O)C1=C(C)NC(C)=C(C(=O)OC(C)C)C1c1cccc(F)c1F (racemic) [Example 9, (±) isopropyl 2-methoxyethyl 4-(2,3-difluorophenyl)-1,4-dihydro-2,6-dimethylpyridine-3,5-dicarboxylate] | – | – | 135 to 136
COCCOC(=O)C1=C(C)NC(C)=C(C(=O)OC(C)C)C1c1c(F)cccc1Cl (racemic) [Example 3, (±) isopropyl 2-methoxyethyl 4-(2-chloro-6-fluorophenyl)-1,4-dihydro-2,6-dimethylpyridine-3,5-dicarboxylate] | – | – | 57 to 59
COCCOC(=O)C1=C(C)NC(C)=C(C(=O)OC2CCCC2)C1c1cccc(C#N)c1Cl (racemic) [Example 30, (±) cyclopentyl 2-methoxyethyl 4-(2-chloro-3-cyanophenyl)-1,4-dihydro-2,6-dimethylpyridine-3,5-dicarboxylate] | 4.7 | 8 | 119 to 120
COCCOC(=O)C1=C(C)NC(C)=C(C(=O)OC(C)C)C1c1cccc(Cl)c1C#N (racemic) [Example 15, (±) isopropyl 2-methoxyethyl 4-(3-chloro-2-cyanophenyl)-1,4-dihydro-2,6-dimethylpyridine-3,5-dicarboxylate] | 5.7 | 11.3 | –
COCCOC(=O)C1=C(C)NC(C)=C(C(=O)OC2CCCC2)C1c1cccc(Cl)c1C#N (racemic) [Example 46, (±) cyclopentyl 2-methoxyethyl 4-(2-cyano-3-chlorophenyl)-1,4-dihydro-2,6-dimethylpyridine-3,5-dicarboxylate] | – | – | 128 to 130

Source: US6630494B2, “Phenyl-substituted 1,4-dihydropyridines” (Bayer Aktiengesellschaft, priority 1983, dated 2003)
